Measurements taken from EP3262942A1, “SELENODIARYLS FOR USE AS MICROBICIDE OR AS MEDICINE” (Evonik Degussa GmbH, priority 2016, dated 2018).

Legend:
Candida albicans = test: Growth test in microtiter plates, HA medium, 24 h, visual evaluation; type: cell-based; parameters: key: +: kein Wachstum im Vergleich zur Wachstumskontrolle; -: Wachstum wie Wachstumskontrolle
Mucor miehei = test: as above; type: cell-based; parameters: key to Aktivität gegenüber M. miehei: +: kein Wachstum im Vergleich zur Wachstumskontrolle; -: Wachstum wie Wachstumskontrolle
Penicillium notatum = test: as above; type: cell-based; parameters: key: +: kein Wachstum im Vergleich zur Wachstumskontrolle; -: Wachstum wie Wachstumskontrolle
Paecilomyces variotii = test: as above; type: cell-based; parameters: key: +: kein Wachstum im Vergleich zur Wachstumskontrolle; -: Wachstum wie Wachstumskontrolle
M. grisea H2O = test: microbe, parasite or virus in culture; type: cell-based, Magnaporthe grisea; details: Pyricularia grisea, H2O, 24 h, read-out: Aktivität gegenüber M. grisea H2O
Botrytis cinerea = test: microbe, parasite or virus in culture; type: cell-based
P. infestans = test: microbe, parasite or virus in culture; type: cell-based, Phytophthora infestans; details: Phytophthora infestans, 24 h, read-out: Aktivität gegenüber P. infestans
M. grisea CM = test: microbe, parasite or virus in culture; type: cell-based, Magnaporthe grisea; details: Pyricularia grisea, 24 h, read-out: Aktivität gegenüber M. grisea CM
Lepidium sativum = test: Crop plant growth test, seeds on filter discs, 4 days, visual evaluation; type: in vivo
Outline: (§1)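 Compounds dried from DMSO onto filter discs; about 12 seeds per well with 200 µl sterile tap water, incubated 4 days in a humid chamber under 16 h light/8 h dark. Visual scoring: + means at least 75 % growth inhibition versus control, − means less than 75 %.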

Setaria italica = test: as above; type: in vivo
Outline: as §1

[1] = system: alle getesteten Pathogene; type: cell-based; details: 5-50 µg/mL

In the case of `Oc1c(Cl)cc(F)cc1[Se]c1cc(F)cc(Cl)c1O` [Verbindung 24, Bis(3-chlor-5-fluor-2-hydroxyphenyl)selen], the “Aktivität gegenüber C. albicans” value (Candida albicans; 10µg/mL) is reported as “+”, the “Aktivität gegenüber C. albicans” value (Candida albicans; 50µg/mL) is reported as “+” and the “Aktivität gegenüber M. miehei” value (Mucor miehei; 10µg/mL) is reported as “+”. The “Aktivität gegenüber M. miehei” value (Mucor miehei; 50µg/mL) was “+”, the “Aktivität gegenüber P. notatum” value (Penicillium notatum; 10µg/mL) was “+” and the “Aktivität gegenüber P. notatum” value (Penicillium notatum; 50µg/mL) was “+”. The “Aktivität gegenüber P. variotii” value (Paecilomyces variotii; 10µg/mL) was “+”, the “Aktivität gegenüber P. variotii” value (Paecilomyces variotii; 50µg/mL) was “-” and the inhibition of growth at 5 µg/mL (M. grisea H2O) was greater than 75%. For the same compound, the inhibition of growth at 10 µg/mL (M. grisea H2O) was greater than 75%, the inhibition of growth at 25 µg/mL (M. grisea H2O) was greater than 75% and the inhibition of growth at 50 µg/mL (M. grisea H2O) was greater than 75%. The “mikrobizide Wirksamkeit gegenüber B. cinerea” value (Botrytis cinerea) was “mikrobizide Wirksamkeit”, the inhibition of growth at 5 µg/mL (Botrytis cinerea; Botrytis cinerea, 24 h, 5µg/mL, read-out: Aktivität gegenüber B. cinerea) was greater than 75% and the inhibition of growth at 10 µg/mL (Botrytis cinerea; Botrytis cinerea, 24 h, 10µg/mL, read-out: Aktivität gegenüber B. cinerea) was greater than 75%. It also gave an inhibition of growth at 25 µg/mL (Botrytis cinerea; Botrytis cinerea, 24 h, 25µg/mL, read-out: Aktivität gegenüber B. cinerea) greater than 75%, an inhibition of growth at 50 µg/mL (Botrytis cinerea; Botrytis cinerea, 24 h, 50µg/mL, read-out: Aktivität gegenüber B. cinerea) greater than 75% and an inhibition of growth at 5 µg/mL (P. infestans) greater than 75%. For the same compound, the inhibition of growth at 10 µg/mL (P. infestans) was greater than 75%, the inhibition of growth at 25 µg/mL (P. infestans) was greater than 75% and the inhibition of growth at 50 µg/mL (P. infestans) was greater than 75%. The inhibition of growth at 5 µg/mL (M. grisea CM) was greater than 75%, the inhibition of growth at 10 µg/mL (M. grisea CM) was greater than 75% and the inhibition of growth at 25 µg/mL (M. grisea CM) was greater than 75%. The inhibition of growth at 50 µg/mL (M. grisea CM) was greater than 75%, the “Aktivität gegenüber Nutzpflanzen: L. sativum” value (Lepidium sativum; 10µg/R) was “- (weniger als 75 % Wachstumshemmung im Vergleich zur Kontrolle)” and the “Aktivität gegenüber Nutzpflanzen: L. sativum” value (Lepidium sativum; 20µg/R) was “+ (mind. 75 % Wachstumshemmung im Vergleich zur Kontrolle)”. For the same compound, the “Aktivität gegenüber Nutzpflanzen: L. sativum” value (Lepidium sativum; 50µg/R) was “- (weniger als 75 % Wachstumshemmung im Vergleich zur Kontrolle)”, the “Effekt auf L. sativum” value (Lepidium sativum; […]) was “deutlichen negativen Effekt” and the “Aktivität gegenüber Nutzpflanzen: S. italica” value (Setaria italica; 10µg/R) was “- (weniger als 75 % Wachstumshemmung im Vergleich zur Kontrolle)”. The “Aktivität gegenüber Nutzpflanzen: S. italica” value (Setaria italica; 20µg/R) was “+ (mind. 75 % Wachstumshemmung im Vergleich zur Kontrolle)”, the “Aktivität gegenüber Nutzpflanzen: S. italica” value (Setaria italica; 50µg/R) was “- (weniger als 75 % Wachstumshemmung im Vergleich zur Kontrolle)” and the “Effekt auf S. italica” value (Setaria italica; […]) was “deutlichen negativen Effekt”. For the same compound, the “Aktivität im Wachstums- und Keimungshemmungstest gegen die getesteten Pathogene” value [1] was “durchgehende Aktivität gegen alle Pathogene”.
